The source of these data is patent US20260092074A1, “Annelated Pyridines as Steroidogenesis Inhibitors, Preparation Method and Use Thereof” (Guangzhou Vinnocent Pharmaceutical Limited, priority 2022, published 2026).

In one test the target is T1, human CYP11B2 (Homo sapiens, UniProt P19099).
T1 construct: expressed in transfected cells
T1 sequence (P19099 25-503): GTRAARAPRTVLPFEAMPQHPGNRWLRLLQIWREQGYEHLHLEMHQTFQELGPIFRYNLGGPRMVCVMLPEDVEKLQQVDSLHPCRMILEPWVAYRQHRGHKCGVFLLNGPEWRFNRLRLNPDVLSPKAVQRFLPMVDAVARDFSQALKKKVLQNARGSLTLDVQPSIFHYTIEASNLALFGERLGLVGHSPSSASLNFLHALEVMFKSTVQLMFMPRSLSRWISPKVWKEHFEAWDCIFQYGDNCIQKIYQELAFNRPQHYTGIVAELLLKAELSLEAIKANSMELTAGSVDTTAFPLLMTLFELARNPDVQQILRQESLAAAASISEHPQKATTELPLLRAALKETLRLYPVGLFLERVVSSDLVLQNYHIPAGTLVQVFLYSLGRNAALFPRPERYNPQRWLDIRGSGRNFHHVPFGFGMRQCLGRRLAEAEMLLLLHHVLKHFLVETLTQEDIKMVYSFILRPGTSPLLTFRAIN
Kind of test: Inhibition of hCYP11B2 in transfected V79 cells. The conditions noted are these: hamster V79 cells expressing human CYP11B2; substrate 11-deoxycorticosterone 200 nM. The class given is cell-based. Summed up:
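Hamster V79 cells stably co-expressing human CYP11B2 and rat NADPH-P450 reductase were pre-incubated with compounds for 2 hours, then given 200 nM 11-deoxycorticosterone for 30 minutes before ethyl acetate quench. Substrate and product were quantified by LC-MS/MS or HPLC at 260 nm, and IC50 was derived from percent inhibition.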

The target in the next test is T2, human CYP11B1 (Homo sapiens, UniProt P15538).
T2 construct: expressed in transfected cells
T2 sequence (P15538 25-503): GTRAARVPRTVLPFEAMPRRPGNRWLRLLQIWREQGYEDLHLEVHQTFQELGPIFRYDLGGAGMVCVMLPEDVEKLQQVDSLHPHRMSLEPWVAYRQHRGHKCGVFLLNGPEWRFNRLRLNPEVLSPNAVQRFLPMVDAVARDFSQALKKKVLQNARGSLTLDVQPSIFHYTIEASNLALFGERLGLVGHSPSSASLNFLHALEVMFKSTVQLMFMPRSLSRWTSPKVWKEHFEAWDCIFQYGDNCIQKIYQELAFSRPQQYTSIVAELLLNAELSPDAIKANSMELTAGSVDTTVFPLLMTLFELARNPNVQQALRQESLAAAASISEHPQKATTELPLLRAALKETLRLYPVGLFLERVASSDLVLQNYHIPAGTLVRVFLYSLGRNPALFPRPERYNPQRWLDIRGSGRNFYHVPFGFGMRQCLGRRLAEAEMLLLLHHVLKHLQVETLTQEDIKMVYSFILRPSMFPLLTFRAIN
Kind of test: Inhibition of hCYP11B1 in transfected V79 cells. Format: cell-based. The conditions noted are these: hamster V79 cells expressing human CYP11B1; substrate 11-deoxycortisol 200 nM. The essentials: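 V79 hamster cells stably expressing human CYP11B1 and rat NADPH-P450 reductase were preincubated with compounds for 2 h. 11-Deoxycortisol (200 nM) was then added as substrate for 30 min before ethyl acetate quench. Substrate and product were quantified by LC-MS/MS or HPLC at 260 nm, and IC50 was derived from percent inhibition.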

Molecules are shown by their SMILES.

As to `COc1cccc(C2=NOC(S(=O)(=O)N3CCOc4c(-c5ccc(C#N)cc5)cncc43)C2)c1` (stereo not drawn) [O100, 4-(4-((3-(3-Methoxyphenyl)-4,5-dihydroisoxazol-5-yl)sulfonyl)-3,4-dihydro-2H-pyrido[4,3-b][1,4]oxazin-8-yl)benzonitrile], the IC50 (as a rule, the midpoint of a concentration-inhibition curve) at human CYP11B2 was 0.3 nM; on human CYP11B1, 102 nM.
On the same counts, the results for `N#Cc1ccc(-c2cncc3c2OCCN3S(=O)(=O)C2CC(c3cccc(C#N)c3)=NO2)cc1` (stereo not drawn) [O101, 3-(5-((8-(4-Cyanophenyl)-2,3-dihydro-4H-pyrido[4,3-b][1,4]oxazin-4-yl)sulfonyl)-4,5-dihydroisoxazol-3-yl)benzonitrile] are 0.4 nM and 57 nM.
On the same counts, the results for `N#Cc1ccc(-c2cncc3c2OCCN3S(=O)(=O)C2CC(c3ccccc3)=NO2)cc1` (stereo not drawn) [O102, 4-(4-((3-Phenyl-4,5-dihydroisoxazol-5-yl)sulfonyl)-3,4-dihydro-2H-pyrido[4,3-b][1,4]oxazin-8-yl)benzonitrile] are 0.3 nM and 62 nM.
On the same counts, the results for `N#Cc1ccc(-c2cncc3c2OCCN3S(=O)(=O)C2CC(Cc3ccccc3)=NO2)cc1` (stereo not drawn) [O103, 4-(4-((3-benzyl-4,5-dihydroisoxazol-5-yl)sulfonyl)-3,4-dihydro-2H-pyrido[4,3-b][1,4]oxazin-8-yl)benzonitrile] are 0.5 nM and 79 nM.
With `N#Cc1ccc(-c2cncc3c2OCCN3C(=O)[C@H]2CCN(Cc3cccc(F)c3)C2)cc1` [O104, (S)-4-(4-(1-(3-Fluorobenzyl)pyrrolidine-3-carbonyl)-3,4-dihydro-2H-pyrido[4,3-b][1,4]oxazin-8-yl)benzonitrile], the IC50 was found to be 4.1 nM on human CYP11B2 and 468 nM against human CYP11B1.
On the same counts, the results for `N#Cc1ccc(-c2cncc3c2OCCN3C(=O)[C@@H]2CCN(Cc3cccc(F)c3)C2)cc1` [O105, (R)-4-(4-(1-(3-Fluorobenzyl)pyrrolidine-3-carbonyl)-3,4-dihydro-2H-pyrido[4,3-b][1,4]oxazin-8-yl)benzonitrile] are 29 nM and 650 nM.
On to `Clc1ccc2oc(-c3cncc4c3OCCN4)cc2c1` [O108, 8-(5-Chlorobenzofuran-2-yl)-3,4-dihydro-2H-pyrido[4,3-b][1,4]oxazine], for which the IC50 against human CYP11B2 turned out to be 7.9 nM; on human CYP11B1, 359 nM.
On the same counts, the results for `N#Cc1ccc2oc(-c3cncc4c3OCCN4)cc2c1` [O109, 2-(3,4-Dihydro-2H-pyrido[4,3-b][1,4]oxazin-8-yl)benzofuran-5-carbonitrile] are 4.8 nM and 376 nM.
On to `N#Cc1ccc(-c2cncc3c2OCCN3S(=O)(=O)C2CN(C(=O)c3cccc(C#N)c3)C2)cc1` [O110, 4-(4-((1-(3-Cyanobenzoyl)azetidin-3-yl)sulfonyl)-3,4-dihydro-2H-pyrido[4,3-b][1,4]oxazin-8-yl)benzonitrile], for which the IC50 was determined as 19.3 nM against human CYP11B2 and 484 nM at human CYP11B1.
With `N#Cc1ccc(C(=O)N2CC(S(=O)(=O)N3CCOc4c(-c5ccc(C#N)cc5)cncc43)C2)cc1` [O111, 4-(4-((1-(4-Cyanobenzoyl)azetidin-3-yl)sulfonyl)-3,4-dihydro-2H-pyrido[4,3-b][1,4]oxazin-8-yl)benzonitrile], the IC50 on human CYP11B2 is 23.2 nM; at human CYP11B1 it was 216 nM.
`COc1cccc(C(=O)N2CC(S(=O)(=O)N3CCOc4c(-c5ccc(C#N)cc5)cncc43)C2)c1` [O112, 4-(4-((1-(3-Methoxybenzoyl)azetidin-3-yl)sulfonyl)-3,4-dihydro-2H-pyrido[4,3-b][1,4]oxazin-8-yl)benzonitrile]: the values for the IC50 at human CYP11B2 and against human CYP11B1 were 27 nM and 169 nM, respectively.
On the same counts, the results for `COc1ccc(C(=O)N2CC(S(=O)(=O)N3CCOc4c(-c5ccc(C#N)cc5)cncc43)C2)cc1` [O113, 4-(4-((1-(4-Methoxybenzoyl)azetidin-3-yl)sulfonyl)-3,4-dihydro-2H-pyrido[4,3-b][1,4]oxazin-8-yl)benzonitrile] are 3 nM and 97 nM.
On the same counts, the results for `N#Cc1ccc(-c2cncc3c2OCCN3S(=O)(=O)C2CN(S(=O)(=O)c3ccc(C#N)cc3)C2)cc1` [O114, 4-((3-((8-(4-Cyanophenyl)-2,3-dihydro-4H-pyrido[4,3-b][1,4]oxazin-4-yl)sulfonyl)azetidin-1-yl)sulfonyl)benzonitrile] are 7 nM and 69 nM.
On the same counts, the results for `N#Cc1ccc(-c2cncc3c2OCCN3S(=O)(=O)C2CN(S(=O)(=O)c3cccc(C#N)c3)C2)cc1` [O115, 3-((3-((8-(4-Cyanophenyl)-2,3-dihydro-4H-pyrido[4,3-b][1,4]oxazin-4-yl)sulfonyl)azetidin-1-yl)sulfonyl)benzonitrile] are 3.2 nM and 104 nM.
Regarding `N#Cc1ccc(-c2cncc3c2OCCN3S(=O)(=O)C2CN(S(=O)(=O)c3ccc(F)cc3)C2)cc1` [O116, 4-(4-((1-((4-Fluorophenyl)sulfonyl)azetidin-3-yl)sulfonyl)-3,4-dihydro-2H-pyrido[4,3-b][1, 4]oxazin-8-yl)benzonitrile], the figures for the IC50 against human CYP11B2 and against human CYP11B1 were 3.1 nM and 54 nM, respectively.
On the same counts, the results for `N#Cc1ccc(-c2cncc3c2OCCN3S(=O)(=O)C2CN(S(=O)(=O)c3cccc(F)c3)C2)cc1` [O117, 4-(4-((1-((3-Fluorophenyl)sulfonyl)azetidin-3-yl)sulfonyl)-3,4-dihydro-2H-pyrido[4,3-b][1, 4]oxazin-8-yl)benzonitrile] are 2.4 nM and 45 nM.
On to `COc1ccc(S(=O)(=O)N2CC(S(=O)(=O)N3CCOc4c(-c5ccc(C#N)cc5)cncc43)C2)cc1` [O118, 4-(4-((1-((4-Methoxyphenyl)sulfonyl)azetidin-3-yl)sulfonyl)-3,4-dihydro-2H-pyrido[4,3-b][1,4]oxazin-8-yl)benzonitrile], for which the IC50 against human CYP11B2 worked out at 2.7 nM; at human CYP11B1, 39 nM.
On the same counts, the results for `COc1cccc(S(=O)(=O)N2CC(S(=O)(=O)N3CCOc4c(-c5ccc(C#N)cc5)cncc43)C2)c1` [O119, 4-(4-((1-((3-Methoxyphenyl)sulfonyl)azetidin-3-yl)sulfonyl)-3,4-dihydro-2H-pyrido[4,3-b][1,4]oxazin-8-yl)benzonitrile] are 4.2 nM and 38 nM.
On the same counts, the results for `N#Cc1ccc(-c2cncc3c2OCCN3S(=O)(=O)C2CN(Cc3cccc(C#N)c3)C2)cc1` [O120, 3-((3-((8-(4-Cyanophenyl)-2,3-dihydro-4H-pyrido[4,3-b][1,4]oxazin-4-yl)sulfonyl)azetidin-1-yl)methyl)benzonitrile] are 0.3 nM and 29 nM.
For `N#Cc1ccc(CN2CC(S(=O)(=O)N3CCOc4c(-c5ccc(C#N)cc5)cncc43)C2)cc1` [O121, 4-(4-((1-(4-Cyanobenzyl)azetidin-3-yl)sulfonyl)-3,4-dihydro-2H-pyrido[4,3-b][1,4]oxazin-8-yl)benzonitrile], the results for the IC50 against human CYP11B2 and against human CYP11B1 were 0.4 nM and 36 nM, respectively.
On the same counts, the results for `N#Cc1ccc(-c2cncc3c2OCCN3S(=O)(=O)C2CN(Cc3cccc(F)c3)C2)cc1` [O122, 4-(4-((1-(3-Fluorobenzyl)azetidin-3-yl)sulfonyl)-3,4-dihydro-2H-pyrido[4,3-b][1,4]oxazin-8-yl)benzonitrile] are 0.8 nM and 59 nM.
With `N#Cc1ccc(-c2cncc3c2OCCN3S(=O)(=O)C2CN(Cc3ccc(F)cc3)C2)cc1` [O123, 4-(4-((1-(4-Fluorobenzyl)azetidin-3-yl)sulfonyl)-3,4-dihydro-2H-pyrido[4,3-b][1,4]oxazin-8-yl)benzonitrile], the IC50 against human CYP11B2 is 0.3 nM; against human CYP11B1 it was 26 nM.
On the same counts, the results for `COc1cccc(CN2CC(S(=O)(=O)N3CCOc4c(-c5ccc(C#N)cc5)cncc43)C2)c1` [O124, 4-(4-((1-(3-Methoxybenzyl)azetidin-3-yl)sulfonyl)-3,4-dihydro-2H-pyrido[4,3-b][1,4]oxazin-8-yl)benzonitrile] are 0.6 nM and 38 nM.
Take `COc1ccc(CN2CC(S(=O)(=O)N3CCOc4c(-c5ccc(C#N)cc5)cncc43)C2)cc1` [O125, 4-(4-((1-(4-Methoxybenzyl)azetidin-3-yl)sulfonyl)-3,4-dihydro-2H-pyrido[4,3-b][1,4]oxazin-8-yl)benzonitrile]: the IC50 against human CYP11B2 amounted to 0.5 nM; on human CYP11B1, 28 nM.
